# According to patent US6660835B1, “Lead substances and their use as therapeutics” (priority 1998, dated 2003):
# Ends that are not written are not given here.
# Experiments:
# [1] = test system: S. epidermidis agr P3 promoter; settings: peptide 200 nM; for Specific CAT activity: S. epidermidis, without peptide 12.5
# [2] = test system: S. aureus Newman; experiment: Exoprotein and surface-associated protein production, Tricine SDS-PAGE; settings: 1 μM, 16 h culture
# Protocol: FIG. 6: Influence of the S. epidermidis pheromone and its derivatives on the production of exoproteins and surface-associated proteins in S. aureus Newman. (A) Exoproteins: basic medium was inoculated with 1/100 vol. of a preculture of S. aureus Newman. At the same time, the pheromone or one of its derivatives was added at a concentration of 1 μM. The peptides were dissolved in DMSO (dimethylsulfoxide); a control received only DMSO. Culture filtrates (20 μl) of the cultures harvested after 16 h of growth were applied to Tricine SDS-PAGE and stained with Coomassie Blue. (B) Surface-associated proteins: pellets of the centrifuged 16 h cultures were dissolved in SDS-PAGE loading buffer containing 1% SDS, boiled at 1000C for 5 min, and applied to Tricine SDS-PAGE after removal of insoluble material by centrifugation. […] (SEQ ID NO: 17); (6) control (with DMSO); (7) molecular weight standards.
# The effect of the synthetic cyclic peptides on the production pattern of surface-associated proteins and exoproteins was investigated (for Exoprotein analysis of S. epidermidis see Experimental procedures).
# The synthetic cyclic peptides were added at a concentration of 1 μM to a culture that was inoculated by 1/100 vol. of a preculture; the cultures were incubated for 16 h. […]
Substance,Specific CAT activity [1],surface-associated proteins synthesized ([2]; cell pellets),reduction of exoprotein production ([2]; culture filtrate),effect on CAT activity [1]
SVCASYF (not fully specified (bridges); also: thioester linkage to Cys3; listed as Staphylococcus epidermidis),8.9 U/mg protein,,,
SVc[CASYF]: S. epidermidis pheromone lacking the original aspartate residue at the N-terminus (SVXASYF; thiolactone cyclisation; VARIANT (3) C-terminal cyclyzed through thioester linkage to cystine residue 3; listed as Staphylococcus epidermidis),16.1 U/mg protein,synthesized in higher amounts,most pronounced,very small stimulatory effect
